Holding throughout (test): Cytotoxicity assay (Version 2), automated, AC50
Assay [1] deals with SUM149. The format is cell-based. The conditions noted are these: SUM149 cells, Version 2, activity concentration at -50%, 4 parameter Hill-fit. How it is done: (§1) Cultivation of cells was performed according to standard procedures with the media recommended by the provider. The cells, in a total volume of 100 μL, were seeded in a 96-well plate with a white bottom (#3610). After a 24 h incubation period at 37° C. and 5% CO2, the medium was exchanged by adding 90 μL fresh medium. The treatment started by adding the test compound in 10 μL of culture medium to the cells in triplicates. Concentrations ranging from 10^−5 M to 10^−13 M were chosen. Two identically treated sets of samples were prepared. One set was treated with the test compound alone, whereas to the second set the compound and 10 nM elastase was added followed by a 72 h incubation period at 37° C. and 5% CO2. The proliferation was detected using the MTT assay (ATCC). At the end of the incubation period the MTT reagent was added to all samples for 4h. Lysis of the cells followed by addition of the detergent was done overnight. The formed dye was detected at 570 nm. The proliferation of untreated but otherwise identically handled cells was define as the […].
(§2) The Cytotoxicity assay (Version 2) was performed as above described. Some changes were applied as the assays were performed in an automated fashion and the IC50 values determination was changed. Here the change in metabolic activity of the cells, in percent, was calculated by normalization of the measured values to the absorbance values of medium containing wells without cells (=−100% ) and the absorbance of the DMSO-treated cells (=0% ). AC50 values (activity concentration at -50% o) were determined by means of a 4 parameter Hill-fit using GeneData Screener software.

Assay [2] has as its system 786-O. Format: cell-based, human. The note with it: 786-O cells, Version 2, activity concentration at -50%, 4 parameter Hill-fit. Here is the method: as §1, §2
The test system of assay [3] is NCI H292. Format: cell-based, human. The conditions noted are these: NCI H292 cells, Version 2, activity concentration at -50%, 4 parameter Hill-fit. How it is done: as §1, §2
Assay [4] relates to HT29. Format: cell-based, human. The note with it: HT29 cells, Version 2, activity concentration at -50%, 4 parameter Hill-fit. Here is the method: as §1, §2

Counter-ions that a name gives are not always drawn. *1 amine or outer side, *2 acyl side, *3 side chain or, on linkers, in order; H or OH if unused. Where a SMILES comes first, the peptide text is derived from it. [ ]: non-standard residue; d: D form. The star is where a group is joined. X1 = CCCNC(=O)Nc1cccc(S(=O)(=O)Nc2cccc([C@@H](CC(=O)O)NC(=O)Nc3ccc(N*)cc3)c2)c1; Camptothecin(7-Et) = CCc1c2c(nc3ccccc13)-c1cc3c(c(=O)n1C2)COC(=O)[C@@]3(CC)O*; CO = O=C([*:1])[*:2]; Sar = CNCC(=O)O

Consider `CCCNC(=O)Nc1cccc(S(=O)(=O)Nc2cccc([C@@H](CC(=O)O)NC(=O)Nc3ccc(NC(=O)NCCOCCOCCOCCC(=O)NCCNC(=O)CC[C@H](NC(=O)CCCC(=O)NCCN(C)CCN(C)CCN(C)CC(=O)N[C@@H](CC(N)=O)C(=O)N4CCC[C@H]4C(=O)N[C@H](C(=O)O[C@]4(CC)C(=O)OCc5c4cc4n(c5=O)Cc5c-4nc4ccccc4c5CC)C(C)C)C(=O)NCCNC(=O)CCOCCOCCOCCNC(=O)Nc4ccc(NC(=O)N[C@H](CC(=O)O)c5cccc(NS(=O)(=O)c6cccc(NC(=O)NCCC)c6)c5)cc4)cc3)c2)c1` [Compound A9], for which the AC50 in assay [1] (no elastase) is 110 to 1000 nM; in assay [1] (with elastase), no more than 10 nM; in assay [2] (no elastase) it was 110 to 1000 nM; in assay [2] (with elastase), no more than 10 nM; in assay [3] (no elastase), 110 to 1000 nM; in assay [3] (with elastase), no more than 10 nM. Also, the AC50 was greater than 1000 nM in assay [4] (no elastase) and 11 to 100 nM in assay [4] (with elastase).

For the compound `CCCNC(=O)Cc1cccc(S(=O)(=O)Nc2cccc([C@@H](CC(=O)O)NC(=O)Nc3ccc(NC(=O)NCCOCCOCCOCCC(=O)NCCNC(=O)[C@H](CCC(=O)NCCNC(=O)CCOCCOCCOCCNC(=O)Nc4ccc(NC(=O)N[C@H](CC(=O)O)c5cccc(NS(=O)(=O)c6cccc(NC(=O)NCCC)c6)c5)cc4)NC(=O)CCCC(=O)NCCN(C)CCN(C)CCN(C)CC(=O)NCC(=O)N4CCC[C@H]4C(=O)N[C@H](C(=O)O[C@]4(CC)C(=O)OCc5c4cc4n(c5=O)Cc5c-4nc4ccccc4c5CC)C(C)C)cc3)c2)c1` [Compound A11], the AC50 in assay [1] (no elastase) was no more than 10 nM; in assay [1] (with elastase), no more than 10 nM; in assay [2] (no elastase), 11 to 100 nM; in assay [2] (with elastase), no more than 10 nM; in assay [3] (no elastase) it was no more than 10 nM; in assay [3] (with elastase) it was no more than 10 nM. For the same compound, the figures for the AC50 in assay [4] (no elastase) and in assay [4] (with elastase) were 110 to 1000 nM and 11 to 100 nM, respectively.

Consider `CCCNC(=O)Nc1cccc(S(=O)(=O)Nc2cccc([C@H](CC(=O)O)NC(=O)Nc3ccc(NC(=O)NCCOCCOCCOCCC(=O)NCCNC(=O)CC[C@H](NC(=O)CCCC(=O)NCCN(C)CCN(C)CCN(C)CC(=O)NCC(=O)N4CCC[C@H]4C(=O)N[C@H](C(=O)O[C@]4(CC)C(=O)OCc5c4cc4n(c5=O)Cc5c-4nc4ccccc4c5CC)C(C)C)C(=O)NCCNC(=O)CCOCCOCCOCCNC(=O)Nc4ccc(NC(=O)N[C@@H](CC(=O)O)c5cccc(NS(=O)(=O)c6cccc(NC(=O)NCCC)c6)c5)cc4)cc3)c2)c1` [Compound A12], for which the AC50 is no more than 10 nM in assay [1] (no elastase); no more than 10 nM in assay [1] (with elastase); no more than 10 nM in assay [2] (no elastase); no more than 10 nM in assay [2] (with elastase); 11 to 100 nM in assay [3] (no elastase); no more than 10 nM in assay [3] (with elastase). Also, the AC50 fell in the range of 110 to 1000 nM in assay [4] (no elastase) and 11 to 100 nM in assay [4] (with elastase).

In the case of `CCCNC(=O)Nc1cccc(S(=O)(=O)Nc2cccc([C@@H](CC(=O)O)NC(=O)Nc3ccc(NC(=O)N(C)CC(=O)N(C)CC(=O)N(C)CC(=O)N(C)CC(=O)N[C@@H](CC(=O)O)C(=O)N4CCC[C@H]4C(=O)N[C@H](C(=O)O[C@]4(CC)C(=O)OCc5c4cc4n(c5=O)Cc5c-4nc4ccccc4c5CC)C(C)C)cc3)c2)c1` [Compound B6] ({X1-CO}-[Sar][Sar][Sar][Sar]DPV-{Camptothecin(7-Et)}), the AC50 in assay [1] (no elastase) was 110 to 1000 nM; in assay [1] (with elastase), no more than 10 nM; in assay [2] (no elastase), 110 to 1000 nM; in assay [2] (with elastase), no more than 10 nM; in assay [3] (no elastase), 110 to 1000 nM; in assay [3] (with elastase), no more than 10 nM. Also, the AC50 in assay [4] (no elastase) was greater than 1000 nM; in assay [4] (with elastase) it was 11 to 100 nM.

For `CCCNC(=O)Nc1cccc(S(=O)(=O)Nc2cccc([C@@H](CC(=O)O)NC(=O)Nc3ccc(NC(=O)NCCOCCOCCOCCC(=O)N[C@@H](CC(=O)OCCC[N+](C)(C)C)C(=O)N4CCC[C@H]4C(=O)N[C@H](C(=O)O[C@]4(CC)C(=O)OCc5c4cc4n(c5=O)Cc5c-4nc4ccccc4c5CC)C(C)C)cc3)c2)c1` [Compound C5, trifluoroacetate], the AC50 in assay [1] (no elastase) is 110 to 1000 nM; in assay [1] (with elastase), no more than 10 nM; in assay [2] (no elastase) it was 110 to 1000 nM; in assay [2] (with elastase), no more than 10 nM; in assay [3] (no elastase), 110 to 1000 nM; in assay [3] (with elastase), no more than 10 nM. Besides, the results for the AC50 in assay [4] (no elastase) and in assay [4] (with elastase) were greater than 1000 nM and 11 to 100 nM, respectively.

`CCCNC(=O)Nc1cccc(S(=O)(=O)Nc2cccc([C@@H](CC(=O)O)NC(=O)Nc3ccc(NC(=O)NCCOCCOCCOCCC(=O)N[C@@H](CC(=O)O)C(=O)N4CCC[C@H]4C(=O)N[C@@H](C)C(=O)O[C@]4(CC)C(=O)OCc5c4cc4n(c5=O)Cc5c-4nc4ccccc4c5CC)cc3)c2)c1` [Compound C10, disodium (4S)-4,11-diethyl-3,14-dioxo-3,4,12,14-tetrahydro-1H-pyrano[3′,4′:6,7]indolizino[1,2-b]quinolin-4-yl 1-[(2S)-2-(carboxylatomethyl)-17-{4-[({(1R)-2-carboxylato-1-[3-({3-[(propylcarbamoyl)amino]benzene-1-sulfonyl}amino)phenyl]ethyl}carbamoyl)amino]anilino}-4,17-dioxo-7,10,13-trioxa-3,16-diazaheptadecanan-1-oyl]-L-prolyl-L-alaninate]: the AC50 in assay [1] (no elastase) was 11 to 100 nM; in assay [1] (with elastase), no more than 10 nM; in assay [2] (no elastase), 11 to 100 nM; in assay [2] (with elastase) it was no more than 10 nM; in assay [3] (no elastase) it was 11 to 100 nM; in assay [3] (with elastase) it was no more than 10 nM. The figures for the AC50 in assay [4] (no elastase) and in assay [4] (with elastase) were 110 to 1000 nM and 11 to 100 nM, respectively.

Regarding `CCCNC(=O)Nc1cccc(S(=O)(=O)Nc2cccc([C@@H](CC(=O)O)NC(=O)Nc3ccc(NC(=O)N(C)CC(=O)N(C)CC(=O)N(C)CC(=O)N(C)CC(=O)N(C)CC(=O)N(C)CC(=O)N(C)CC(=O)N(C)CC(=O)N[C@@H](CC(=O)O)C(=O)N4CCC[C@H]4C(=O)N[C@H](C(=O)O[C@]4(CC)C(=O)OCc5c4cc4n(c5=O)Cc5c-4nc4ccccc4c5CC)C(C)C)cc3)c2)c1` [Compound D3] ({X1-CO}-[Sar][Sar][Sar][Sar][Sar][Sar][Sar][Sar]DPV-{Camptothecin(7-Et)}), the AC50 was 110 to 1000 nM in assay [1] (no elastase); no more than 10 nM in assay [1] (with elastase); 110 to 1000 nM in assay [2] (no elastase); no more than 10 nM in assay [2] (with elastase); 110 to 1000 nM in assay [3] (no elastase); no more than 10 nM in assay [3] (with elastase). The AC50 fell in the range of 110 to 1000 nM in assay [4] (no elastase) and 11 to 100 nM in assay [4] (with elastase).

Take `CCCNC(=O)Nc1cccc(S(=O)(=O)Nc2cccc([C@@H](CC(=O)O)NC(=O)Nc3ccc(NC(=O)NCCOCCOCCOCCC(=O)N[C@@H](CCCCNC(=O)CCCC(=O)N(C)CC(=O)N(C)CC(=O)N(C)CC(=O)N(C)CC(=O)N(C)CC(=O)N(C)CC(=O)N(C)CC(=O)N(C)CC(=O)O)C(=O)NCCOCCOCCOCCC(=O)N[C@@H](CC(=O)O)C(=O)N4CCC[C@H]4C(=O)N[C@H](C(=O)O[C@]4(CC)C(=O)OCc5c4cc4n(c5=O)Cc5c-4nc4ccccc4c5CC)C(C)C)cc3)c2)c1` [Compound E4]: the AC50 in assay [1] (no elastase) is 110 to 1000 nM; in assay [1] (with elastase), no more than 10 nM; in assay [2] (no elastase) it was 110 to 1000 nM; in assay [2] (with elastase), no more than 10 nM; in assay [3] (no elastase), 110 to 1000 nM; in assay [3] (with elastase), no more than 10 nM. The results for the AC50 in assay [4] (no elastase) and in assay [4] (with elastase) were 110 to 1000 nM and 11 to 100 nM, respectively.

One may read the AC50 as the concentration at which the activity in the assay is half-maximal.
